Patent US10301270B2, “Compositions and methods for quadricyclane modification of biomolecules” (The Regents of the University of California, priority 2011, dated 2019)
“Also recorded” adds a separate entry of the source. Read-outs that look alike come from different tables or passages of the source.

Columns and labels:
Format in all cases: physicochemical
[1] = Solubility and reactivity of bis(dithiobenzil)nickel(II) 2
[2] = Stability of quadricyclane 1 to cysteine and other biological nucleophiles, BSA and cell culture media
Description: 7-acetoxy quadricyclane (1, 2 mg) was dissolved in 0.4 mL of CD3CN. To this solution, 0.4 mL of deuterated PBS and 3 mg of cysteine were added. The NMR spectrum above was taken 2.5 months after the described solution was prepared.

[3] = Stability of 7-acetoxy quadricyclane 1 in PBS (NMR); conditions: room temperature, more than 2 months (NMR taken 2.5 months after preparation, CD3CN/deuterated PBS)
Description: 7-acetoxy quadricyclane (1, 2 mg) was dissolved in 0.4 mL of CD3CN. To this solution, 0.4 mL of deuterated PBS was added. The NMR spectrum above was taken 2.5 months after the described solution was prepared.

[4] = Photo-lability of complex 3 in ambient light (NMR, UV/Vis/NIR); conditions: CDCl3 solution in an NMR tube
Description: Complex 3 (2.2 mg) was dissolved in CDCl3 (˜0.75 mL) and placed in an NMR tube on the bench continually exposed to ambient light. NMR spectra were periodically obtained. The asterisks indicate the chemical shifts for 7-acetoxy norbornadiene (4). At the 36 h time point, there is a 1:1.1 ratio of 3:4 as judged by integration of the olefin peaks.
Using an NMR assay degradation of 3 over the first few hours is not evident. However, using UV/Vis/NIR spectroscopy, which has greater sensitivity than NMR, the formation of 2 from 3 is evident at early timepoints. A solution of 3 was prepared in CH3CN and left in ambient light. A UV/Vis/NIR spectrum was obtained every 15 min. The NIR absorption band at 855 nm characteristic of 2 is growing in, while the small hump centered at ˜400 nm characteristic of […] is decreasing. The absorption band at 350 nm is also increasing in intensity.

[5] = Prevention of photo-degradation of complex 3 by diethyldithiocarbamate (UV/Vis/NIR); conditions: 200 μM 3, 1.25 mM 5, 3:1 CH3CN/H2O, 20 h ambient light
Description: A solution containing 200 μM 3 and 0 (red) or 1.25 (green) mM 5 in 3:1 CH3CN/H2O was prepared and left in ambient light continually. A. UV/Vis/NIR spectra of the described solutions taken before being exposed to light. B. UV/Vis/NIR spectra of the described solutions taken after 20 h of exposure to light. The red line contains little absorbance due to the low solubility of 2 in acetonitrile. If 2 is reduced to the anionic state by cysteine (1.25 mM, blue line) solubility in acetonitrile is improved and evidence of photodegradation can be seen. The diethyldithiocarbamate treated sample remains unaltered after exposure to light indicating no photodegradation occurred.

Q: With `S=C(C(=S)c1ccccc1)c1ccccc1.S=C(C(=S)c1ccccc1)c1ccccc1.[Ni]` [Compound 2, Bis(dithiobenzil)nickel(II)] as the molecule, how does the Solubility in acetonitrile ([1]; acetonitrile) read?
A: Its Solubility in acetonitrile is “low”.

Q: And the “Reactivity with a variety of nucleophiles” value ([1]; in dichloromethane)?
A: The value was “unreactive”.

Q: What about the “Solubility in polar solvents” value ([1]; polar solvents) of the same molecule?
A: The value was “limited”.

Q: With `CC(=O)OC1C2C3C2C2C1C32` (stereo not drawn) [Compound 1, 7-acetoxy Quadricyclane] as the molecule, how does the “Stability in the presence of bovine serum albumin (BSA) and cell culture media” value ([2]; conditions emulating metabolic labeling experiments) read?
A: Its value is “stable”.

Q: And the “Reactivity with sugars, oxidants and free amino acids, most notably cysteine” value ([2]; cysteine: CD3CN/deuterated PBS, NMR after 2.5 months)?
A: Its value is “stable; also recorded: unreactive”.

Q: What about the “Stability in phosphate buffered saline (PBS, pH 7.4)” value [3] of the same molecule?
A: The value was “stable; also recorded: no degradation observed”.

Q: Which half-life at 2.9 mg/mL ([4]; NMR, read-out: Calculated half-life of photo-degradation based on all integration data (converted)) does the source give for `CC(=O)OC1C2C=CC1C1C2[S]2=[Ni]3(=[S]1C(c1ccccc1)=C(c1ccccc1)[S]3)[S]C(c1ccccc1)=C2c1ccccc1` (stereo not drawn) [Complex 3] here?
A: Its half-life at 2.9 mg/mL is 34.8 h.

Q: What about the half-life at 2.9 mg/mL ([4]; read-out: Half-life of the light-induced reversion (converted)) of the same molecule?
A: Its half-life at 2.9 mg/mL is roughly 35 h.

Q: For `CCN(CC)C(=S)S` [Compound 5, diethyldithiocarbamate], which “Effect on photo-degradation of complex 3” value [5] is on record?
A: Its value is “prevented”.
